From article PMC9819389, “Antiandrogenic and Estrogenic Activity Evaluation of Oxygenated and Nitrated Polycyclic Aromatic Hydrocarbons Using Chemically Activated Luciferase Expression Assays” (International Journal of Environmental Research and Public …, 2022)
“Also recorded” adds a separate entry of the source. Where two headings read alike, the source gives them in different places. Marks after values point to notes of the source that are not given here. Values belong to the molecule of their own block, whether it stands above or below them.

What was measured:
human AR = biological target: T1, human AR (Homo sapiens, UniProt P10275); assay: AR-CALUX assay, antiandrogenic (AR antagonistic) activity, U2OS-luc cells; format: cell-based; set-up: host or cells: human U2OS-luc (osteoblastic osteosarcoma) cells; conditions: for REPmol (IC25): molar relative potency to flutamide, IC25-based
T1 sequence (P10275 1-920): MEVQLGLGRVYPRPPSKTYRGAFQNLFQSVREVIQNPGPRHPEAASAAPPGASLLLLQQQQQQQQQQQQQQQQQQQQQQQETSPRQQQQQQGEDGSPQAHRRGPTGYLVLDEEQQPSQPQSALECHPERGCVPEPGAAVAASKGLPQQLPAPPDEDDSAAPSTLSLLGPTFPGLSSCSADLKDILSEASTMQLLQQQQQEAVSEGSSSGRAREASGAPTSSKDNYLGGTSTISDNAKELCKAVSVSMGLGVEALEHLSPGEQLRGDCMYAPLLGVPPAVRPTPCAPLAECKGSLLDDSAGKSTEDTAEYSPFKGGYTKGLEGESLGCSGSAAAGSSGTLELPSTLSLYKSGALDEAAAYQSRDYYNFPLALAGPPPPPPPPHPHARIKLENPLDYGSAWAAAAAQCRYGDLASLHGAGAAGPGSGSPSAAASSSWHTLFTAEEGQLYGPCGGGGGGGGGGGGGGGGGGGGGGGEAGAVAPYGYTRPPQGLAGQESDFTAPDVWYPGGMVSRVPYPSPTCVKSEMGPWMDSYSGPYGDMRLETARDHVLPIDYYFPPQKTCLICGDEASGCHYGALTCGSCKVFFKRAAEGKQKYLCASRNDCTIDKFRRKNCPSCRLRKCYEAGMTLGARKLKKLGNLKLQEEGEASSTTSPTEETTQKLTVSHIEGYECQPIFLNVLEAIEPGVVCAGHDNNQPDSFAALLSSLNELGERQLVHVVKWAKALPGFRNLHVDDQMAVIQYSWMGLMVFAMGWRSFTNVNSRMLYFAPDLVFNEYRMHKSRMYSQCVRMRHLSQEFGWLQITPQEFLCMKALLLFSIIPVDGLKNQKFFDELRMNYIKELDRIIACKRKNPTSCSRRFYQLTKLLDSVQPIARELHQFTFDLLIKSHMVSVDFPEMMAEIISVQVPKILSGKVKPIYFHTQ
Experimental: The AR- and ER-CALUX assays for the polycyclic aromatic compounds were evaluated according to previously described methods, which used human U2OS-luc cells developed by BioDetection Systems b.v. (Amsterdam, The Netherlands). The cells are transfected stably with human AR and ER, respectively, and a luciferase reporter gene under their respective steroid receptor response elements. […] They were incubated at 37 °C in a humidified atmosphere containing 5% carbon dioxide. […] The medium was then removed, and the cells were lysed. A solution of luciferin was then added, and the luminescence intensity was measured with an ARVO™ X3 luminometer from PerkinElmer (Waltham, MA, USA). A sigmoid dose–response curve for a chemical was fitted to the Hill equation given by Equation (1) using SigmaPlot 11.0 from Systat Software Inc. (San Jose, CA, USA). y = min + (max − min)/(1 + (a1/x)^a^2)(1) where, y and x are the measured luciferase induction level and compound concentration, respectively. […] The REP values in mol base were obtained by dividing the ICs or ECs of the standard by the ICs or ECs of target compound, respectively.
All measurements were conducted in triplicate wells. They were repeated twice and trice in the AR- and ER-CALUX assays, respectively, for each concentration in dose–response curve. […] Cell viability was confirmed using 3-(4,5-dimethylthiazol-2-yl)-2,5-diphenyltetrazolium bromide (MTT) assay. If the cell viability was <80% in the positive control, the corresponding exposure dose was considered cytotoxic and excluded from the calculation.

human ER = biological target: T2, human ER (Homo sapiens, UniProt P03372); assay: ER-CALUX assay, estrogenic activity, U2OS-luc cells; format: cell-based; set-up: host or cells: human U2OS-luc (osteoblastic osteosarcoma) cells; conditions: for EC50 / REPmol (EC50): present study; for EC50: 24 h exposure; for REPmol (EC50): molar relative potency to E2, EC50-based
T2 sequence (P03372 1-595): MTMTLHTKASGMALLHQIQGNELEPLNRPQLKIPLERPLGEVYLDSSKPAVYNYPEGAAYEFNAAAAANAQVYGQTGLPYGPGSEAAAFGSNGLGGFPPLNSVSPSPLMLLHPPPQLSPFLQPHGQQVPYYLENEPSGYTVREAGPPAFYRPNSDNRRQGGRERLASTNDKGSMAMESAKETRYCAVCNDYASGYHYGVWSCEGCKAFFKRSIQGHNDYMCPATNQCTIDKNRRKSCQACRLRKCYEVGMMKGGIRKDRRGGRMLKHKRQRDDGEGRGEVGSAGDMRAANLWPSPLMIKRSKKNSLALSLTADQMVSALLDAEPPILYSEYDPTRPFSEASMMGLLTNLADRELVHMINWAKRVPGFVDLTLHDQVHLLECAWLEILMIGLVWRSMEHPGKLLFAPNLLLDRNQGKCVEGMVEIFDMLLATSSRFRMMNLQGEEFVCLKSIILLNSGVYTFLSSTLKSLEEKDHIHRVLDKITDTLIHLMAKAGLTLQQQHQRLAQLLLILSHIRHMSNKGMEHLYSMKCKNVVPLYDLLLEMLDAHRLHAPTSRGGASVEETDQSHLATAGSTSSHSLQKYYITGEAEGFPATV

AR [1] = tested on: AR; set-up: method as in Okamura et al. [22]; key: +, positive; conditions: cited from earlier work
AR [2] = conditions: previous study, cited from earlier work
[3] = present study, 24 h exposure with 100 pM DHT (EC50 level)

IC25 (human AR; [3]): 840 nM | REPmol (IC25) (human AR; present study): 0.12 | IC50 (human AR; read-out: IC50): 2000 nM | EC50 (human ER): U ^j (< 10% response of 1 nM E2) | REPmol (EC50) (human ER): U (< 10% response of 1 nM E2)
Molecule: O=C1C=Cc2cccc3cccc1c23 [PhO, Phenalenone]

Molecule: O=[N+]([O-])c1ccc2c(c1)-c1cccc3cccc-2c13 [8-NFA, 8-Nitrofluoranthene]
IC25 (human AR; [3]): 98 nM | REPmol (IC25) (human AR; present study): 1.3 | IC50 (human AR; read-out: IC50): 270 nM

Molecule: c1ccc2c(c1)-c1cccc3c1c-2cc1ccccc13 [B[b]FA, benzo[b]fluoranthene]
antiandrogenic activity, PC3 (AR [1]; previous study, ref Okamura et al. [22]): +

Molecule: c1ccc2c(c1)cc1ccc3cccc4c5ccccc5c2c1c34 [DB[a,l]P, dibenzo[a,l]pyrene]
IC25 (human AR; [3]): 3600 nM | REPmol (IC25) (human AR; present study): 0.037 | IC50 (human AR; read-out: IC50): 8900 nM | EC50 (human ER): U (key: U: < 10% response of 1 nM E2; nd: not detected) | REPmol (EC50) (human ER): U (key: U: < 10% response of 1 nM E2; nd: not detected)

Molecule: O=C1c2cccc3ccc4ccc5cccc1c5c4c23 [BPO, 6H-benzo[cd]pyren-6-one]
antiandrogenic activity (in words) (human AR; present study): not observed | EC50 (human ER): U (key: U: < 10% response of 1 nM E2; nd: not detected) | REPmol (EC50) (human ER): U (key: U: < 10% response of 1 nM E2; nd: not detected)

Molecule: c1cc2ccc3ccc4ccc5cccc6c(c1)c2c3c4c56 [BPe, Benzo[ghi]perylene]
antiandrogenic activity, PC3 (AR [1]): +

Molecule: O=C1c2ccccc2-c2cc3ccccc3cc21 [B[b]FO, 11H-benzo[b]fluoren-11-one]
IC25 (human AR; [3]): 150 nM | REPmol (IC25) (human AR; present study): 0.81 | IC50 (human AR; read-out: IC50): 530 nM | EC50 (human ER; read-out: EC50): 4800 nM

Molecule: c1ccc2c(c1)cc1ccc3cc4ccccc4c4ccc2c1c34 [DB[a,i]P, dibenzo[a,i]pyrene]
antiandrogenic activity (in words) (human AR; present study): not observed; also recorded: inactive | activation (level of the response to 1 nM E2) (human ER; at 3 μM): 14% activation at 3 μM

Molecule: cyclopenta[cd]pyrene [CPP]
IC25 (human AR; [3]): 580 nM | IC50 (human AR; present study, 24 h exposure with 100 pM DHT (EC50 level), read-out: IC50): 1300 nM | REPmol (IC25) (human AR; present study): 0.14

Molecule: c1ccc2c(c1)ccc1ccc3ccccc3c12 [B[c]Phe, Benzo[c]phenanthrene]
IC25 (human AR; [3]): 110 nM | REPmol (IC25) (human AR; present study): 1.0 | IC50 (human AR; read-out: IC50): 370 nM | activation (level of the response to 1 nM E2) (human ER; at 8 μM): 27% activation at 8 μM

Molecule: O=C1c2ccccc2-c2cccc3cccc1c23 [BAO, 7H-benz[de]anthracen-7-one]
REPmol, U2OS (AR [2]; relative to flutamide, ref Weiss et al. [34]): 0.014 ^c | EC50 (human ER; read-out: EC50): 16000 nM

Molecule: CC(C)C(=O)Nc1ccc([N+](=O)[O-])c(C(F)(F)F)c1 [Flutamide, reference compound]
REPmol, U2OS (AR [2]; the standard itself, no reference given): 1

Molecule: O=[N+]([O-])c1ccc2ccc3ccc([N+](=O)[O-])c4ccc1c2c34 [1,8-DNPy, 1,8-dinitropyrene]
REPmol (IC25) (human AR; present study): 0.91 | REPmol (EC50) (human ER): U (< 10% response of 1 nM E2)

antiandrogenic activity (in words) (human AR; present study): not observed | EC50 (human ER): U (< 10% response of 1 nM E2) | REPmol (EC50) (human ER): U (< 10% response of 1 nM E2)
Molecule: O=C1c2ccccc2C(=O)c2cc3ccccc3cc21 [NCQ, 5,12-naphthacenequinone]

Molecule: O=C1C=Cc2ccccc2C1=O [NphQ, 1,2-naphthoquinone]
antiandrogenic activity (in words) (human AR; present study): not observed

Molecule: O=[N+]([O-])c1cc([N+](=O)[O-])c2ccc3cccc4ccc1c2c43 [1,3-DNPy, 1,3-dinitropyrene]
IC50 (human AR): 210 nM | inhibition of AR-mediated luciferase activity (human AR; coexposure to DHT at 10 nM (100 × EC50), compound at 3 μM): 33% | mode of AR inhibition (human AR; from coexposure to 10 nM DHT): noncompetitive | IC25 (human AR; [3]): 130 nM | REPmol (IC25) (human AR; present study): 0.88 | EC50 (human ER): U (< 10% response of 1 nM E2) | REPmol (EC50) (human ER): U (< 10% response of 1 nM E2)

Molecule: O=[N+]([O-])c1cc2c3ccccc3ccc2c2ccccc12 [6-NChr, 6-nitrochrysene]
IC25 (human AR; [3]): 39 nM | REPmol (IC25) (human AR; present study): 3.2 | IC50 (human AR; read-out: IC50): 88 nM

Molecule: O=C1c2ccccc2-c2ccc3ccccc3c21 [B[a]FO, 11H-Benzo[a]fluoren-11-one]
IC25 (human AR; [3]): 300 nM | REPmol (IC25) (human AR; present study): 0.43 | IC50 (human AR; read-out: IC50): 670 nM | EC50 (human ER; read-out: EC50): 4800 nM
